Assay results: patent US20210015725A1, “SKINCARE PRODUCT AND METHOD OF PREPARATION THEREOF” (FE:I BEAUTY TECH, INC., priority 2012, published 2021)

Key:
[1] = calcium carbonate 0-10%, various time periods of incubation
Protocol: Precipitation of iron by calcium carbonate: Iron was added to extracellular matrix, followed by the addition of different concentrations of calcium carbonate (0-10%) (FIG. 5). After various time periods of incubation, a small part of the mixture was filtered using a membrane with a molecular weight cutoff of 5,000 Dalton as previously described in FIG. 4. Levels of iron in the filtrates were determined by Ferrozine.

Ferritin = Ferritin (Homo sapiens, UniProt P02792+P02794); assay: Reduction of iron from ferritin by vitamin C; assay type: biochemical
Protocol: Reduction of iron from ferritin by vitamin C: Ferritin at a concentration of 1 mg/ml was incubated with various concentrations of vitamin C (0-500 μM). […] Levels of iron in the filtrates were measured by Ferrozine (Sigma, St. Louis, Mo.), which forms a stable magenta-colored complex (Fe^2+-ferrozine) with a maximum absorption at 560 nm. In brief, 30 μl sample was added to 135 μl buffer. After 10 min incubation at 37° C., the absorbance was measured at 560 nm using a UV—visible microplate reader (SpectraMax Plus, Molecular Devices, Sunnyvale, Calif.). Then, 5 μl iron chromogenic agent (ferrozine) was added and after 15 min incubation, the absorbance was measured again at 560 nm. The difference in absorbance was used to calculate iron concentration after comparing to the iron standard curve. To determine whether iron is completely released from ferritin, atomic absorption (AA) was used to measure total iron in ferritin.

Sequence of Ferritin (P02794 whole entry, species assumed): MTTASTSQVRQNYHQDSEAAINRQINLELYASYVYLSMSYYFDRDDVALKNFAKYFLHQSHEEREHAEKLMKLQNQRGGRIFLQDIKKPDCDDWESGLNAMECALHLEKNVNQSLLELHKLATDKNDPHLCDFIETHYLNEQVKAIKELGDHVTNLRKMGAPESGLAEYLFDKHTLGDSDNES
Sequence of Ferritin (P02792 whole entry, species assumed): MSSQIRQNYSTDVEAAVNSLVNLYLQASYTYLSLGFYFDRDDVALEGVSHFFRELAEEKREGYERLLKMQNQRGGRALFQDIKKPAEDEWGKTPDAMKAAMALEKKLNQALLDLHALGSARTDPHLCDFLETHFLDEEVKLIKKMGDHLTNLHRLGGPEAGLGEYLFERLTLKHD

Structure (SMILES) | precipitation of iron (iron in filtrates by Ferrozine) [1] | completeness of iron release from ferritin (atomic absorption, total iron) (Ferritin; after vitamin C reduction) | release of iron from ferritin (iron in filtrates measured by Ferrozine) (Ferritin; ferritin 1 mg/ml, vitamin C 0-500 μM, one hour incubation)
O=C([O-])[O-].[Ca+2] [calcium carbonate] | can effectively precipitate iron | – | –
O=C1O[C@H]([C@@H](O)CO)C(O)=C1O [vitamin C] | – | all iron in ferritin is released | effective in releasing iron from ferritin
